Source: patent US11045456B2, “Compositions and methods for treating COPD and other inflammatory conditions” (Georgia State University Research Foundation, Inc., priority 2015, dated 2021)

Experiments:
[1] = test system: PDE4A and 4C; test: Expression of other PDE4 family members (PDE4A, 4C) in BEAS-2B cells; type: cell-based, human; conditions: NTHi or roflumilast
Description: Cell culture. All media described below were supplemented with 10% fetal bovine serum (Sigma-Aldrich). Human bronchial epithelial BEAS-2B cells were maintained in RPMI medium (Life Technologies) (ATCC® CRL-9609™). Human primary bronchial epithelial NHBE (Lonza) cells were maintained in bronchial epithelial growth media (BEGM) supplemented with BEGM SingleQuots (Jono et al., J. Biol. Chem. 277(47):45547-45557, 2002). BEAS-2B cells stably expressing human PDE4B2 (PDE4B2-stable cells) were obtained by plasmid transfection following Geneticin selection (300 μg/mL). Cells were cultured in a humidified atmosphere of 5% CO2 at 37° C.

[2] = test system: p65 or PKA-Cβ; test: Nuclear expression level of p65 or PKA-Cβ in BEAS-2B cells; type: cell-based, human
Description: Subcellular fractionation. Cells were washed twice and […] with ice cold PBS and centrifuged at 3,000×g for 5 min. The cells were then suspended with Buffer A (10 mM HEPES at pH7.4, 10 mM KCl, 0.1 mM EDTA, 0.1 mM EGTA, 1 mM DTT, supplemented with 1 mM Na3VO4 and PIC) and incubated on ice for 10 min (Schreiber et al., Nucleic Acids Res. 17(15):6419, 1989). The cells were lysed by adding NP40 (0.5%) and vortexing for 15 sec. then centrifuged at 3,000×g for 5 min before the supernatants were removed (cytosol fraction). Precipitates were resuspended in Buffer B (20 mM HEPES at pH7.5, 5 mM NaCl, 1 mM EDTA, […], 1 mM DTT, supplemented with 1 mM Na3VO4 and PIC) and incubated on ice for 10 min. before vortexing and centrifuging at 16,000×g for 15 min to recover the supernatants (nuclear fraction). Western blot. Whole-cell extracts and mouse lung tissue extracts were recovered with lysis buffer (50 mM Tris-HCl at pH7.4, 1% NP40, 0.25% deoxycholate, 150 mM NaCl, 1 mM EDTA, 1 mM NaF, supplemented with 1 mM Na3VO4 and PIC). For PDE4B protein, cell extracts were recovered with Buffer A as described above. Cell or tissue extracts were separated on 8% SDS-PAGE gels and transferred to polyvinylidene difluoride (PVDF) membrane (GE Healthcare Life Sciences). The membrane was blocked with a solution of TBS containing 0.1% Tween 20 (TBS-T) and 5% non-fat dry milk. […]

Question: With `O=C(Nc1c(Cl)cncc1Cl)c1ccc(OC(F)F)c(OCC2CC2)c1` [roflumilast] as the compound, how does the “expression of PDE4A and 4C” value [1] read?
Answer: not up-regulated

Question: And the “nuclear expression level of p65 or PKA-Cβ” value [2]?
Answer: did not affect
